According to patent US20070276011A1, “Plasminogen Activator Inhibitor-1 Inhibitor” (priority 2003, published 2007):

What was measured:
recombinant human PAI-1 [1] = target: T1, recombinant human PAI-1 (Homo sapiens, UniProt P05121); test: PAI-1 inhibitory activity, Test Method A (tPA fluorogenic substrate, Tris buffer pH8.0, 37 C); assay type: biochemical; details: for Inhibitory Ratio at 25 μM (%): Test Method A; for IC50: 50% inhibitory concentration of PAI-1 activity, according to the aforementioned method
T1 sequence (P05121 24-402): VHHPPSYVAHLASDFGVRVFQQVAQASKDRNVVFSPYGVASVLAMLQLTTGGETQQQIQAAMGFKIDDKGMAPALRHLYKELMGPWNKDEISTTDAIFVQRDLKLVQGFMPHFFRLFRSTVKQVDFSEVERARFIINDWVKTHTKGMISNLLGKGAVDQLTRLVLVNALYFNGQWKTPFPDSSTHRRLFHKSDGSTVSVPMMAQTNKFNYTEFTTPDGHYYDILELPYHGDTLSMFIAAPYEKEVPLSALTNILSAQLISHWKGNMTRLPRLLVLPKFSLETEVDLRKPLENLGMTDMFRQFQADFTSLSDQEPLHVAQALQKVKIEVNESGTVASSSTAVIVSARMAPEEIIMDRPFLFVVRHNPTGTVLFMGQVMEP

recombinant human PAI-1 [2] = target: T1, recombinant human PAI-1; test: Inhibition of complex formation of PAI-1 and tPA (SDS-PAGE); assay type: biochemical; details: 100 μM concentration
Method: To a 2.5 μL solution obtained by diluting a DMSO solution of the test compound at 4-fold concentration of the test concentration with PBS(-), 5 μL of 150 nM recombinant human PAI-1 solution adjusted with a phosphate buffer (pH6.6, 0.05M Sodium Phosphate, 0.1 M NaCl, 1 mM EDTA) was added, and reacted for 5 minutes at 37° C. […] of 600 nM recombinant human one-chain tPA solution adjusted with PBS(-) was added, and further reacted for 5 minutes at 37° C. 10 μL of stop buffer (1.25 mM Tris-HCl pH6.8, 4% SDS, 0.01% BPB, 14% Glycerol) was added, heated for 30 seconds at 100° C., and then the total amount of 20 μL was applied to 10% SDS-PAGE gel electrophoresis. When the test compound was not added as being a control, a band of PAI-1-tPA complex was observed.

Structure (SMILES)	Inhibitory Ratio at 25 μM (%) (recombinant human PAI-1 [1]; 25 μM test compound)	Inhibitory Ratio at 25 μM (%) (recombinant human PAI-1 [1]; test compound 25 μM)	further results
O=C(Nc1ccc(O)c(O)c1)c1cc(C=C2SC(=O)N(Cc3ccc(Cl)c(Cl)c3)C2=O)ccc1O [compound 352]	66	–	inhibition of the complex formation of PAI-1 and tPA observed with SDS-PAGE (recombinant human PAI-1 [2]): completely inhibited
CC(C)C1=NN(c2cc(Cl)cc(Cl)c2)C(=O)C1=Cc1cc(O)c(O)cc1O [compound 504]	89	–	IC50 (recombinant human PAI-1 [1]): 290 nM; inhibition of the complex formation of PAI-1 and tPA observed with SDS-PAGE (recombinant human PAI-1 [2]): completely inhibited
O=C1SC(=Cc2cccc(O)c2O)C(=O)N1Cc1ccc(Br)cc1 [compound 36, 5-(2,3-Dihydroxybenzylidene)-3-(4-bromobenzyl)thiazolidine-2,4-dione]	–	>99	IC50 (recombinant human PAI-1 [1]): 450 nM; inhibition of the complex formation of PAI-1 and tPA observed with SDS-PAGE (recombinant human PAI-1 [2]): completely inhibited
O=C(Nc1cc(C(F)(F)F)ccc1Cl)c1cc(C=C2SC(=O)N(Cc3ccc(Cl)c(Cl)c3)C2=O)ccc1O [compound 423]	75	–	inhibition of the complex formation of PAI-1 and tPA observed with SDS-PAGE (recombinant human PAI-1 [2]): completely inhibited
CC1=NN(c2ccc(Cl)c(Cl)c2)C(=O)C1=Cc1cc(O)c(O)cc1O [compound 503]	>99	–	inhibition of the complex formation of PAI-1 and tPA observed with SDS-PAGE (recombinant human PAI-1 [2]): completely inhibited
O=C1SC(=Cc2cccc(O)c2O)C(=O)N1Cc1ccc(C(F)(F)F)cc1 [compound 43, 5-(2,3-Dihydroxybenzylidene)-3-[4-(trifluoromethyl)benzyl]thiazolidine-2,4-dione]	–	>99	IC50 (recombinant human PAI-1 [1]): 360 nM; inhibition of the complex formation of PAI-1 and tPA observed with SDS-PAGE (recombinant human PAI-1 [2]): completely inhibited
O=C(Nc1cccc(O)c1O)c1cc(C=C2SC(=O)N(Cc3ccc(Cl)c(Cl)c3)C2=O)ccc1O [compound 436]	>99	–	IC50 (recombinant human PAI-1 [1]): 210 nM; inhibition of the complex formation of PAI-1 and tPA observed with SDS-PAGE (recombinant human PAI-1 [2]): completely inhibited
O=C1SC(=Cc2cccc(O)c2O)C(=O)N1Cc1ccc(C=Cc2ccccc2)cc1 [compound 56, 5-(2,3-Dihydroxybenzylidene)-3-(4-styrylbenzyl)thiazolidine-2,4-dione]	–	>99	IC50 (recombinant human PAI-1 [1]): 140 nM; inhibition of the complex formation of PAI-1 and tPA observed with SDS-PAGE (recombinant human PAI-1 [2]): completely inhibited
CC(C)C1=NN(c2ccc(Cl)c(Cl)c2)C(=O)C1=Cc1cc(O)c(O)c(O)c1 [compound 134, 4-(3,4,5-Trihydroxybenzylidene)-1-(3,4-dichlorophenyl)-3-isopropyl-2-pyrazolin-5-one]	–	>99	–
O=C1SC(=Cc2cccc(O)c2O)C(=O)N1Cc1cccc([N+](=O)[O-])c1 [compound 49]	–	93	–
COCC1=NN(c2cc(Cl)cc(Cl)c2)C(=O)C1=Cc1ccc(Oc2ccccc2)cc1 [compound 527]	59	–	–
COc1ccc(COC(=O)c2cc(C=C3SC(=O)N(Cc4ccc(-c5ccccc5)cc4)C3=O)ccc2O)cc1 [compound 362, 5-[3-(4-Methoxybenzyloxycarbonyl)-4-hydroxybenzylidene]-3-(4-phenylbenzyl)thiazolidine-2,4-dione]	>99	–	–
CC(C)(C)C1=NN(c2cc(Cl)cc(Cl)c2)C(=O)C1=Cc1cc(O)c(O)c(O)c1 [compound 139]	–	>99	–
COc1c(O)cccc1C=C1SC(=O)N(Cc2ccc(Cl)c(Cl)c2)C1=O [compound 329]	34	–	–
COc1cccc(NC(=O)c2cc(C=C3SC(=O)N(Cc4ccc(Cl)c(Cl)c4)C3=O)ccc2O)c1 [compound 355, 5-[4-hydroxy-3-(3-methoxyphenylcarbamoyl)benzylidene]-3-(3,4-dichlorobenzyl)thiazolidine-2,4-dione]	>99	–	–
COc1cc(C=C2C(=O)N(c3cc(Cl)cc(Cl)c3)N=C2C(C)C)cc(Br)c1O [compound 539, 4-(3-Methoxy-4-hydroxy-5-bromobenzylidene)-1-(3,5-dichlorophenyl)-3-isopropyl-2-pyrazolin-5-one]	80	–	–
O=C1C(=Cc2ccc(O)cc2)C(c2ccc(O)cc2)=NN1c1cc(Cl)cc(Cl)c1 [compound 511]	>99	–	–
O=C1SC(=Cc2cccc(O)c2O)C(=O)N1Cc1ccc(Cl)cc1 [compound 32, 5-(2,3-Dihydroxybenzylidene)-3-(4-chlorobenzyl)thiazolidine-2,4-dione]	–	>99	–
CCOC1=NN(c2ccc([N+](=O)[O-])cc2)C(=O)C1=Cc1cc(C=Cc2ccccc2)ccc1O[Si](C)(C)C(C)(C)C [compound 543]	>99	–	–
O=C1C(=Cc2ccc(O)c(O)c2)C(c2ccccc2)=NN1c1cc(Cl)cc(Cl)c1 [compound 129, 4-(3,4-Dihydroxybenzylidene)-1-(3,5-dichlorophenyl)-3-phenyl-2-pyrazolin-5-one]	–	>99	–
O=C(Nc1ccc(O)c(O)c1)c1cc(C=C2SC(=O)N(Cc3ccc(-c4ccccc4)cc3)C2=O)ccc1O [compound 373]	93	–	–
CCOC(=O)CCCC1=NN(c2ccc(Cl)cc2)C(=O)C1=Cc1cc(Br)ccc1O [compound 516, 4-(2-Hydroxy-5-bromobenzylidene)-1-(4-chlorophenyl)-3-[3-(ethoxycarbonyl)propyl]-2-pyrazolin-5-one]	86	–	–

Structure (SMILES)	Inhibitory Ratio at 25 μM (%) (recombinant human PAI-1 [1]; 25 μM test compound)	Inhibitory Ratio at 25 μM (%) (recombinant human PAI-1 [1]; test compound 25 μM)	further results
O=C1SC(=Cc2ccc(O)c(O)c2)C(=O)N1Cc1cccc(Nc2ccccc2)c1 [compound 318, 5-(3,4-Dihydroxybenzylidene)-3-[3-(phenylamino)benzyl]thiazolidine-2,4-dione]	>99	–	–
CC1=NN(c2cccc(C(=O)O)c2)C(=O)C1=Cc1ccc(-c2ccc(C)c(Cl)c2)o1 [compound 187]	–	54	–
O=C1SC(=Cc2ccc(O)c(F)c2)C(=O)N1Cc1ccc(Cl)c(Cl)c1 [compound 332]	>99	–	–
CC1=NN(c2cccc(Cl)c2)C(=O)C1=Cc1cc(O)c(O)c(O)c1 [compound 123]	–	67	–
O=C(O)c1cc(C=C2SC(=O)N(Cc3ccc(Cl)c(Cl)c3)C2=O)cc(O)c1O [compound 464, 5-(3,4-dihydroxy-5-carboxybenzylidene)-3-(3,4-dichlorobenzyl)-thiazolidine-2,4-dione]	>99	–	–
O=C1SC(=Cc2ccc(Oc3ccccc3)cc2)C(=O)N1Cc1cc(O)c(O)c(O)c1 [compound 308, 5-(4-Phenoxybenzylidene)-3-(3,4,5-trihydroxybenzyl)thiazolidine-2,4-dione]	98	–	–
CC(C)C1=NN(c2ccc(Cl)c(Cl)c2)C(=O)C1=Cc1cc(O)ccc1[N+](=O)[O-] [compound 558]	>99	–	–
O=C(Cc1ccccc1)Nc1ccc(CN2C(=O)SC(=Cc3cccc(O)c3O)C2=O)cc1 [compound 313, 5-(2,3-Dihydroxybenzylidene)-3-[4-(phenylacetylamino)benzyl]-thiazolidine-2,4-dione]	73	–	–
O=C(O)c1ccc(N2N=C(c3cc(Br)ccc3O)C(=Cc3ccc(Cl)c(Cl)c3)C2=O)cc1 [Compound No. 564, 4-(3,4-Dichlorobenzylidene)-1-(4-carboxyphenyl)-3-(2-hydroxy-5-bromophenyl)-2-pyrazolin-5-one]	96	–	–
CCOc1cc(C=C2C(=O)N(c3cccc(C(=O)O)c3)N=C2C)ccc1OC(=O)c1cccs1 [compound 103]	–	>99	–
O=C1SC(=Cc2ccc(O)c([N+](=O)[O-])c2)C(=O)N1Cc1ccc(Cl)c(Cl)c1 [compound 85, 5-(4-hydroxy-3-nitrobenzylidene)-3-(3,4-dichlorobenzyl)-thiazolidine-2,4-dione]	–	>99	–
CC1=NN(c2ccc([N+](=O)[O-])cc2)C(=O)C1=Cc1cc(C=Cc2ccccc2)ccc1O [compound 533]	>99	–	–
COc1cc(C=C2C(=O)N(c3ccc(Cl)c(C(=O)O)c3)N=C2C)ccc1OCc1ccccc1 [compound 170]	–	>99	–
O=C1SC(=Cc2cccc(O)c2O)C(=O)N1CCc1ccc(Cl)cc1 [compound 90, 5-(2,3-Dihydroxybenzylidene)-3-[2-(4-chlorophenyl)ethyl]thiazolidine-2,4-dione]	–	>99	–
O=C(O)c1cc(C=C2SC(=O)N(Cc3ccc(Cl)c(Cl)c3)C2=O)ccc1O [compound 358, 5-(3-Carboxy-4-hydroxybenzylidene)-3-(3,4-dichlorobenzyl)thiazolidine-2,4-dione]	95	–	–
CC1=NN(c2cc(Cl)cc(Cl)c2)C(=O)C1=Cc1cc(O)c(O)c(O)c1 [compound 143]	–	>99	–
CC1=NN(c2cccc(Cl)c2)C(=O)C1=Cc1ccc(O)c(O)c1 [compound 117]	–	46	–
COC(=O)c1c(O)cc(C=C2SC(=O)N(Cc3ccc(Cl)cc3Cl)C2=O)cc1O [compound 342, 5-[3,5-Dihydroxy-4-(methoxycarbonyl)benzylidene]-3-(2,4-dichlorobenzyl)thiazolidine-2,4-dione]	37	–	–
Nc1cc(C=C2SC(=O)N(Cc3ccc(Cl)c(Cl)c3)C2=O)ccc1O [compound 86]	–	21	–
COc1cc(C=C2C(=O)N(c3ccc(Cl)c(Cl)c3)N=C2C(C)C)cc([N+](=O)[O-])c1O [compound 561]	91	–	–
O=C(O)c1cccc(N2N=C(c3ccccc3)C(=Cc3ccc(-c4cc(Cl)cc(Cl)c4)o3)C2=O)c1 [compound 216]	–	94	–
